# From US4882349A, “Pyrrolacetic amides having antiinflammatory activity” (priority 1982, dated 1989)
# Like-named read-outs stand apart in the source and are kept apart here.
# Columns and labels:
# [1] = system: phenyl-p-quinone-induced writhing (abdominal contractions); assay: phenylquinone-induced writhing test, oral administration 1-24 h before phenyl-quinone (duration of analgesia); type: in vivo, male Wistar rats
# Description: Male Wistar rats weighing 110±5 g were caged for 10 days at 22±1° C. and given a balanced diet with free access to water. Twenty-four hours before the experiment the animals were randomized into groups of 10 and fasted for 14 hours but with free access to water. Each dose was tested in 3 groups of rats. […] alone (0.5% carboxymethyl-cellulose in physiological saline) in the control animals, each rat was given 2 ml of a 5% absolute ethanol aqueous solution containing 0.36% of phenyl-p-quinone (Sigma Chemical Company) in order to provoke writhings. Fifteen minutes after administration of phenyl-p-quinone the number of contractions were counted for 20 minutes. The inhibiting effect of the compounds under examination on the abdominal contractions induced by phenyl-p-quinone was calculated by the following formula: % protection= [formula]
# [2] = system: brewers' yeast-induced hyperthermia; assay: antipyretic activity, brewers' yeast-induced hyperthermia; type: in vivo, albino male Wistar rats
# Description: The animals were caged under the same conditions as those described in the preceding tests. Five hours following […], determined by a rectal probe connected to a YSI thermometer (73 ATP model, Yellow Springs Instrument Company) were selected for the experiment. The animals were then randomized into groups of 10 and the compounds under examination and the vehicle were administered via the oral and parenteral routes testing each dose in two groups. Body temperature was determined at one, two and three hours after administration of the substances. […]
# in vivo [3] = conditions: rat
# gastric lesions = type: in vivo, male Wistar rats; conditions: 4 consecutive days; for gastric damage index: I=mean no. of lesions+mean of severity+% incidence/10; for mean severity: scale 0 (no lesion) to 5 (perforations)
# Description: Male Wistar rats weighing 180 g were randomized into groups of 10. Three doses of each compound were administered. One group received the vehicle alone (10 ml/kg b.w.). Each dose was given orally for four days consecutively and the rats were sacrificed on the fifth day for necropsy. The ulcerogenic effect was evaluated by the following scale:
# (1) each haemorrhagic point at least 1 mm in diameter was scored as 1 lesion,
# (2) haemorrhagic points less than 1 mm in diameter were scored in the following manner:
# (c) 20 to 29=three lesions
# By means of this scale it was possible to obtain the gastric damage index:
# I=mean no. of lesions+mean of severity+% incidence/10
# in vivo [4] = conditions: mouse
# solubility = type: physicochemical
smiles,measurement,setting,value
"COc1ccccc1OC(=O)CNC(=O)Cc1ccc(C(=O)c2ccc(C)cc2)n1C [Compound 1-d, 1-methyl-5-p-toluoylpyrrole-2-acetamidoacetic acid guaiacyl ester]",% Protection,"[1]; 10 mg/Kg oral, 1 h before phenyl-quinone",55.7%
same,% Protection,"[1]; 10 mg/Kg oral, 2 h before phenyl-quinone",43.3%
same,% Protection,"[1]; 10 mg/Kg oral, 4 h before phenyl-quinone",40.1%
same,% Protection,"[1]; 10 mg/Kg oral, 6 h before phenyl-quinone",44.0%
same,% Protection,"[1]; 10 mg/Kg oral, 8 h before phenyl-quinone",32.0%
same,% Protection,"[1]; 10 mg/Kg oral, 16 h before phenyl-quinone",12.1%
same,% Protection,"[1]; 10 mg/Kg oral, 24 h before phenyl-quinone",10.0%
same,% Protection,"[1]; 20 mg/Kg oral, 1 h before phenyl-quinone",78.1%
same,% Protection,"[1]; 20 mg/Kg oral, 2 h before phenyl-quinone",80.6%
same,% Protection,"[1]; 20 mg/Kg oral, 4 h before phenyl-quinone",70.5%
same,% Protection,"[1]; 20 mg/Kg oral, 6 h before phenyl-quinone",66.3%
same,% Protection,"[1]; 20 mg/Kg oral, 8 h before phenyl-quinone",71.0%
same,% Protection,"[1]; 20 mg/Kg oral, 16 h before phenyl-quinone",23.6%
same,% Protection,"[1]; 20 mg/Kg oral, 24 h before phenyl-quinone",25.0%
same,% Protection,"[1]; 50 mg/Kg oral, 1 h before phenyl-quinone",86.4%
same,% Protection,"[1]; 50 mg/Kg oral, 2 h before phenyl-quinone",87.0%
same,% Protection,"[1]; 50 mg/Kg oral, 4 h before phenyl-quinone",81.5%
same,% Protection,"[1]; 50 mg/Kg oral, 6 h before phenyl-quinone",76.8%
same,% Protection,"[1]; 50 mg/Kg oral, 8 h before phenyl-quinone",75.0%
same,% Protection,"[1]; 50 mg/Kg oral, 16 h before phenyl-quinone",60.7%
same,% Protection,"[1]; 50 mg/Kg oral, 24 h before phenyl-quinone",64.0%
same,% Temperature decrease,"[2]; 50 mg/Kg i.p., 1 h",16.0%
same,% Temperature decrease,"[2]; 50 mg/Kg i.p., 2 h",23.0%
same,% Temperature decrease,"[2]; 50 mg/Kg i.p., 3 h",37.5%
same,% Temperature decrease,"[2]; 50 mg/Kg per os, 1 h",14.0%
same,% Temperature decrease,"[2]; 50 mg/Kg per os, 2 h",22.0%
same,% Temperature decrease,"[2]; 50 mg/Kg per os, 3 h",31.6%
same,% Temperature decrease,"[2]; 75 mg/Kg i.p., 1 h",22.1%
same,% Temperature decrease,"[2]; 75 mg/Kg i.p., 2 h",33.4%
same,% Temperature decrease,"[2]; 75 mg/Kg i.p., 3 h",39.8%
same,% Temperature decrease,"[2]; 75 mg/Kg per os, 1 h",18.5%
same,% Temperature decrease,"[2]; 75 mg/Kg per os, 2 h",23.4%
same,% Temperature decrease,"[2]; 75 mg/Kg per os, 3 h",29.1%
same,% Temperature decrease,"[2]; 100 mg/Kg i.p., 1 h",28.1%
same,% Temperature decrease,"[2]; 100 mg/Kg i.p., 2 h",37.2%
same,% Temperature decrease,"[2]; 100 mg/Kg i.p., 3 h",60.4%
same,% Temperature decrease,"[2]; 100 mg/Kg per os, 1 h",22.0%
same,% Temperature decrease,"[2]; 100 mg/Kg per os, 2 h",42.5%
same,% Temperature decrease,"[2]; 100 mg/Kg per os, 3 h",59.0%
same,LD50,in vivo [3]; ip,1100 mg/kg
same,LD50,in vivo [3]; po,1450 mg/kg
same,% incidence/10 (head is drawing 38),gastric lesions; 50 mg/Kg orally,6
same,mean no. of lesions,gastric lesions; 50 mg/Kg orally,1.5
same,gastric damage index,gastric lesions; 50 mg/Kg orally,8.5
same,mean severity,gastric lesions; 50 mg/Kg orally,1
same,% incidence/10 (head is drawing 38),gastric lesions; 100 mg/Kg orally,9
same,mean no. of lesions,gastric lesions; 100 mg/Kg orally,2
same,gastric damage index,gastric lesions; 100 mg/Kg orally,12.5
same,mean severity,gastric lesions; 100 mg/Kg orally,1.5
same,% incidence/10 (head is drawing 38),gastric lesions; 200 mg/Kg orally,9
same,mean no. of lesions,gastric lesions; 200 mg/Kg orally,2
same,gastric damage index,gastric lesions; 200 mg/Kg orally,13
same,mean severity,gastric lesions; 200 mg/Kg orally,2
same,LD50,in vivo [4]; ip,1370 mg/kg
same,LD50,in vivo [4]; po,> 1500 mg/kg
same,Solubility,solubility,soluble in the common organic solvents
